Reference: PubChem BioAssay AID2060506 (Molecular Pharmacology Branch, DTP, NCI, 2025)

Test system: 598228-144-R-J1-PDC complex spheroid viability
Assay: Anticancer human tumor 598228-144-R-J1-PDC patient-derived serous endometrial adenocarcinoma cell line growth inhibition [GQUAD]
Details: for IC50: curve of first compound; for viability, T/C: stronger effect = lower value
Summary of the method: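 Tumor cells were grown as complex spheroids with HUVEC endothelial cells and mesenchymal stem cells as stroma. G-quadruplex stabilizers were combined with targeted agents over half-log dilutions from near the clinical Cmax, or from 10 microM.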

[1] = second compound 0.0316 µM, first compound 0.0316 µM
[2] = second compound 0.0316 µM, first compound 0.1 µM
[3] = second compound 0.0316 µM, first compound 0.316 µM
[4] = second compound 0.0316 µM, first compound 1 µM
[5] = second compound 0.0316 µM, first compound 3.16 µM
[6] = second compound 0.0316 µM, first compound 10 µM
[7] = second compound 0.1 µM, first compound 0.0316 µM
[8] = second compound 0.1 µM, first compound 0.1 µM
[9] = second compound 0.1 µM, first compound 0.316 µM
[10] = second compound 0.1 µM, first compound 1 µM
[11] = second compound 0.1 µM, first compound 3.16 µM
[12] = second compound 0.1 µM, first compound 10 µM
[13] = second compound 0.316 µM, first compound 0.0316 µM
[14] = second compound 0.316 µM, first compound 0.1 µM
[15] = second compound 0.316 µM, first compound 0.316 µM
[16] = second compound 0.316 µM, first compound 1 µM
[17] = second compound 0.316 µM, first compound 3.16 µM
[18] = second compound 0.316 µM, first compound 10 µM
[19] = second compound 1 µM, first compound 0.0316 µM
[20] = second compound 1 µM, first compound 0.1 µM
[21] = second compound 1 µM, first compound 0.316 µM
[22] = second compound 1 µM, first compound 1 µM
[23] = second compound 1 µM, first compound 3.16 µM
[24] = second compound 1 µM, first compound 10 µM
[25] = second compound 3.16 µM, first compound 0.0316 µM
[26] = second compound 3.16 µM, first compound 0.1 µM
[27] = second compound 3.16 µM, first compound 0.316 µM
[28] = second compound 3.16 µM, first compound 1 µM
[29] = second compound 3.16 µM, first compound 3.16 µM
[30] = second compound 3.16 µM, first compound 10 µM
[31] = second compound 10 µM, first compound 0.0316 µM
[32] = second compound 10 µM, first compound 0.1 µM
[33] = second compound 10 µM, first compound 0.316 µM
[34] = second compound 10 µM, first compound 1 µM
[35] = second compound 10 µM, first compound 3.16 µM
[36] = second compound 10 µM, first compound 10 µM
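Note: spheroids exposed to the agents for one week before reading.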
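Throughout, for viability, T/C: percent of vehicle DMSO control viability so 100% = untreated growth.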

Structure (SMILES): CC1COCCN1c1cc(C2(O)CC3CCC(C2)O3)c2cnn(-c3ccn[nH]3)c2n1 (stereo unspecified) + Cc1[nH]c2ccc(F)cc2c1-c1nc2c3cccnc3c3ncccc3c2[nH]1
- IC50 (second compound 0.0316 µM): 0.144 µM
- IC50 (second compound 0.1 µM): 0.095 µM
- IC50 (second compound 0.316 µM): < 0.0316 µM
- IC50 (second compound 1 µM): < 0.0316 µM
- IC50 (second compound 3.16 µM): < 0.0316 µM
- IC50 (second compound 10 µM): < 0.0316 µM
- viability, T/C [1]: 68%
- viability, T/C [2]: 48%
- viability, T/C [3]: 39%
- viability, T/C [4]: 40.7%
- viability, T/C [5]: 28%
- viability, T/C [6]: 14%
- viability, T/C [7]: 61.3%
- viability, T/C [8]: 40.1%
- viability, T/C [9]: 46.8%
- viability, T/C [10]: 34.9%
- viability, T/C [11]: 31.5%
- viability, T/C [12]: 17.4%
- viability, T/C [13]: 48.8%
- viability, T/C [14]: 44.1%
- viability, T/C [15]: 44.2%
- viability, T/C [16]: 37.6%
- viability, T/C [17]: 28.3%
- viability, T/C [18]: 12.6%
- viability, T/C [19]: 48.9%
- viability, T/C [20]: 37.1%
- viability, T/C [21]: 38%
- viability, T/C [22]: 27.4%
- viability, T/C [23]: 19.9%
- viability, T/C [24]: 12.7%
- viability, T/C [25]: 36.8%
- viability, T/C [26]: 38.8%
- viability, T/C [27]: 30.3%
- viability, T/C [28]: 26.7%
- viability, T/C [29]: 18.3%
- viability, T/C [30]: 8.63%
- viability, T/C [31]: 41.4%
- viability, T/C [32]: 37.4%
- viability, T/C [33]: 31.6%
- viability, T/C [34]: 29.7%
- viability, T/C [35]: 25.4%
- viability, T/C [36]: 12.1%

Structure (SMILES): CC(C)n1c(=O)n(C)c2cnc3cc(F)c(-c4ccc(OCCCN5CCCCC5)nc4)cc3c21 + CN(C)c1ccc(Nc2c3ccc(NC(=O)CCN4CCCC4)cc3nc3cc(NC(=O)CCN4CCCC4)ccc23)cc1
- IC50 (second compound 0.0316 µM): 9.92 µM
- IC50 (second compound 0.1 µM): > 10 µM
- IC50 (second compound 0.316 µM): > 10 µM
- IC50 (second compound 1 µM): 8.29 µM
- IC50 (second compound 3.16 µM): 6.87 µM
- IC50 (second compound 10 µM): 0.217 µM
- viability, T/C [1]: 112%
- viability, T/C [2]: 79.6%
- viability, T/C [3]: 102%
- viability, T/C [4]: 93%
- viability, T/C [5]: 78.1%
- viability, T/C [6]: 49.7%
- viability, T/C [7]: 117%
- viability, T/C [8]: 82.9%
- viability, T/C [9]: 94%
- viability, T/C [10]: 92.2%
- viability, T/C [11]: 86.8%
- viability, T/C [12]: 57.2%
- viability, T/C [13]: 110%
- viability, T/C [14]: 102%
- viability, T/C [15]: 98.9%
- viability, T/C [16]: 89.3%
- viability, T/C [17]: 89.5%
- viability, T/C [18]: 60%
- viability, T/C [19]: 75.7%
- viability, T/C [20]: 87.4%
- viability, T/C [21]: 99.2%
- viability, T/C [22]: 87.7%
- viability, T/C [23]: 83.1%
- viability, T/C [24]: 43.5%
- viability, T/C [25]: 98.2%
- viability, T/C [26]: 78.3%
- viability, T/C [27]: 103%
- viability, T/C [28]: 80.2%
- viability, T/C [29]: 83.3%
- viability, T/C [30]: 34.7%
- viability, T/C [31]: 70.8%
- viability, T/C [32]: 60.3%
- viability, T/C [33]: 44.7%
- viability, T/C [34]: 29.6%
- viability, T/C [35]: 15.8%
- viability, T/C [36]: 5.05%

Structure (SMILES): COc1cc(C2c3cc4c(cc3C(OC3OC5COC(C)OC5C(O)C3O)C3COC(=O)C23)OCO4)cc(OC)c1O (stereo unspecified) + CN(C)c1ccc(Nc2c3ccc(NC(=O)CCN4CCCC4)cc3nc3cc(NC(=O)CCN4CCCC4)ccc23)cc1
- IC50 (second compound 0.0316 µM): 8.17 µM
- IC50 (second compound 0.1 µM): 5.14 µM
- IC50 (second compound 0.316 µM): 5.39 µM
- IC50 (second compound 1 µM): 0.898 µM
- IC50 (second compound 3.16 µM): 5.14 µM
- IC50 (second compound 10 µM): 0.471 µM
- viability, T/C [1]: 114%
- viability, T/C [2]: 105%
- viability, T/C [3]: 75.5%
- viability, T/C [4]: 65.5%
- viability, T/C [5]: 71.5%
- viability, T/C [6]: 42.1%
- viability, T/C [7]: 102%
- viability, T/C [8]: 84.2%
- viability, T/C [9]: 78.6%
- viability, T/C [10]: 61.3%
- viability, T/C [11]: 61.5%
- viability, T/C [12]: 40.3%
- viability, T/C [13]: 103%
- viability, T/C [14]: 95%
- viability, T/C [15]: 70.8%
- viability, T/C [16]: 61.6%
- viability, T/C [17]: 65.4%
- viability, T/C [18]: 39.6%
- viability, T/C [19]: 93.6%
- viability, T/C [20]: 114%
- viability, T/C [21]: 71.3%
- viability, T/C [22]: 55.9%
- viability, T/C [23]: 54.9%
- viability, T/C [24]: 32.5%
- viability, T/C [25]: 95%
- viability, T/C [26]: 75.6%
- viability, T/C [27]: 80%
- viability, T/C [28]: 56.4%
- viability, T/C [29]: 70.3%
- viability, T/C [30]: 35.7%
- viability, T/C [31]: 92.9%
- viability, T/C [32]: 71.8%
- viability, T/C [33]: 53%
- viability, T/C [34]: 40.7%
- viability, T/C [35]: 60.3%
- viability, T/C [36]: 34.9%
